Measured values reported in US9932627B2, “Method for determination of the length of the G-tail sequence and kit for the method” (HIROSHIMA UNIVERSITY, priority 2005, dated 2018).

Key:
[1] = tested on: 90p normal mammary epithelial cell; assay: G tail length measurement by G tail HPA on nondenatured genomic DNA of treated cells; type: cell-based; settings: treated with telomestatin (5 μm) for 48 hours, nondenatured DNA 5 μg, control C = 98
Experimental: (§1) The hydrolysis of the AE in an unhybridized probe was performed by charging 300 μL of a hydrolysis buffer (0.6 mol/L tetrasodium borate buffer containing 50 mL/L of Triton X-100, pH 8.5) into each reaction tube, stirring the mixture vigorously with a Vortex mixer, and incubating the mixture at 60° C. for 10 minutes. The AE in the hybridized probe was not hydrolyzed under the above-described condition. These tubes were cooled on ice for 1 minute or more, and the chemiluminescence in each tube was measured with a luminometer (trade name: Leader 1, manufactured by Gene Probe Inc.) for 2 seconds.
(§2) For the confirmation of nondenatured genomic DNA dose response by the measuring method according to the invention, SiHa cancer cell line-derived nondenatured genomic DNA samples in various amounts (1 μg, 3 μg, 5 μg, 10 μg and 20 μg) and the AE-labeled G tail HPA probe in an amount of 3×10^6 rlu were hybridized with each other. Specifically for detection of the telomere 3′-tail (G tail) in genomic DNA, the total amount of the DNA solution in a Falcon 352053 tube (trade name) was adjusted to 100 μL with sterile water or a TE buffer (10 mM Tris/HCl, 1 mM EDTA, pH 8.0). The AE-labeled G tail HPA probe in an amount of 3×10^6 rlu dissolved in 100-μL of the hybridization buffer was added to the DNA solution, and the mixture was stirred thoroughly with a Vortex mixer and incubated at 60° C. for 20 minutes. The hydrolysis of the AE in unhybridized probe and the detection of the chemiluminescence were performed under a condition similar to that in <1-2>.
(§3) In the present invention, the nondenatured genomic DNA may not be isolated for use, but the nondenatured genomic DNA used in the confirmation test <4-1> was previously isolated in the following manner: The nondenatured genomic DNA used for G tail length measurement was isolated from each cell line by using the phenol-chloroform extraction method. Specifically, cells were centrifuged in an Eppendorf-micro centrifuge tube at 6,000 rpm and 4° C. for 5 minutes, to give a pellet in the microtube. The pellet was washed once with PBS(−) and resuspended in an extraction buffer containing 10 mM Tris buffer (pH 7.6), 150 mM NaCl and NP-40, to a final concentration of 0.5%. After proteinase K digestion, phenol-chloroform extraction was performed twice. The genomic DNA was precipitated with ethanol, treated with RNase A, and then, dissolved in a TE buffer. […]

MCF-7 cancer cell [2] = assay: as above; type: cell-based; settings: treated with telomestatin (5 μm) for 48 hours, nondenatured DNA 5 μg, control C = 212
Experimental: as §1, §2, §3

[3] = tested on: MRC-5-hTERT normal fibroblast; assay: as above; type: cell-based; settings: treated with telomestatin (5 μm) for 48 hours, nondenatured DNA 5 μg, control C = 96
Experimental: as §1, §2, §3

HeLa cancer cell [4] = assay: as above; type: cell-based; settings: treated with telomestatin (5 μm) for 48 hours, nondenatured DNA 5 μg, control C = 126
Experimental: as §1, §2, §3

[5] = tested on: 90p normal mammary epithelial cell; assay: Entire telomere length by telomere HPA on denatured DNA (JP 2001-95586, Comparative Example); type: cell-based; settings: treated with telomestatin (5 μm) for 48 hours, denatured DNA 0.5 μg, control C = 3500
Excerpt: (§4) The dominant negative allelic gene (TRF2^ΔBΔM) was infected to various cells (HeLa cancer cell, SiHa cancer cell, MCF-7 cancer cell, MRC-5-hTERT normal fibroblast, and 90p normal mammary epithelial cell) according to a method similar to that in <9-3>; The nondenatured DNA was isolated from each cell (HeLa cancer cell, SiHa cancer cell, MCF-7 cancer cell, MRC-5-hTERT normal fibroblast, and 90p normal mammary epithelial cell) according to a method similar to that in <4-2>; The nondenatured DNA (5 μg) was used in the G tail measuring method according to the present invention for measurement of the G tail length; and, as a Comparative Example, the measuring method described in Japanese Unexamined Patent Publication No. 2001-95586 was applied to each denatured DNA (0.5 μg) for measurement of the entire telomere length. ExoI treatment was performed similarly to the method described in <4-3> and culture of the cells used, similarly to the method described in <9-2>.
(§5) FIG. 11a is a graph showing the results of measuring G tail by the measuring method according to the invention. FIG. 11b is a graph showing the results of measuring the total telomere length by the measuring method described in Japanese Unexamined Patent Publication No. 2001-95586 as a Comparative Example. In FIG. 11a, “C” represents a control; “T” represents a cell treated with a G tail-shortening medicine telomestatin (5 μm) for 48 hours; represents a ExoI-treated cell; and − represents an untreated cell. […] In FIG. 11b, “C” represents a control; and “T” represents a cell previously treated with a G tail-shortening medicine telomestatin (5 μm) for 48 hours.
(§6) Thus apparently in the measuring method described in Patent Document 1 (Japanese Unexamined Patent Publication No. 2001-95586), the G tail length gives signal intensity only at a noise level within the range of the operation and measurement error, prohibiting G tail measurement. Then, the values on the ordinate in FIG. 11a were converted to average G tail lengths by using the calibration curve shown in FIG. 2 and the values on the ordinate in FIG. 11b to the entire telomere lengths, to give the following results shown in Table 4.

MCF-7 cancer cell [6] = assay: as above; type: cell-based; settings: treated with telomestatin (5 μm) for 48 hours, denatured DNA 0.5 μg, control C = 4000
Excerpt: as §4, §5, §6

[7] = tested on: MRC-5-hTERT normal fibroblast; assay: as above; type: cell-based; settings: treated with telomestatin (5 μm) for 48 hours, denatured DNA 0.5 μg, control C = 6800
Excerpt: as §4, §5, §6

HeLa cancer cell [8] = assay: as above; type: cell-based; settings: treated with telomestatin (5 μm) for 48 hours, denatured DNA 0.5 μg, control C = 4700
Excerpt: as §4, §5, §6

SiHa cancer cell [9] = assay: as above; type: cell-based, human; settings: treated with telomestatin (5 μm) for 48 hours, denatured DNA 0.5 μg, control C = 4500
Excerpt: as §4
FIG. 11a is a graph showing the results of measuring G tail by the measuring method according to the invention. FIG. 11b is a graph showing the results of measuring the total telomere length by the measuring method described in Japanese Unexamined Patent Publication No. 2001-95586 as a Comparative Example. […]

SiHa cancer cell [10] = assay: G tail length measurement by G tail HPA on nondenatured genomic DNA of treated cells; type: cell-based, human; settings: treated with telomestatin (5 μm) for 48 hours, nondenatured DNA 5 μg, control C = 220
Experimental: as §1
For the confirmation of nondenatured genomic DNA dose response by the measuring method according to the invention, SiHa cancer cell line-derived nondenatured genomic DNA samples in various amounts (1 μg, 3 μg, 5 μg, 10 μg and 20 μg) and the AE-labeled G tail HPA probe in an amount of 3×10^6 rlu were hybridized with each other. Specifically for detection of the telomere 3′-tail (G tail) in genomic DNA, the total amount of the DNA solution in a Falcon 352053 tube (trade name) was adjusted to 100 μL with sterile water or a TE buffer (10 mM Tris/HCl, 1 mM EDTA, pH 8.0). […]

Compound: Cc1oc2nc1-c1nc(co1)-c1nc(co1)-c1nc(co1)-c1nc(co1)-c1nc(co1)C1=NC(CS1)c1nc-2c(C)o1 (stereo not shown) [telomestatin]
- Average G tail length (nt) [1]: 96 nt
- Average G tail length (nt) (MCF-7 cancer cell [2]): 162 nt
- Average G tail length (nt) [3]: 96.5 nt
- Average G tail length (nt) (HeLa cancer cell [4]): 89 nt
- Entire telomere length (nt) [5]: 3450 nt
- Entire telomere length (nt) (MCF-7 cancer cell [6]): 3900 nt
- Entire telomere length (nt) [7]: 6750 nt
- Entire telomere length (nt) (HeLa cancer cell [8]): 4600 nt
- Entire telomere length (nt) (SiHa cancer cell [9]): 4600 nt
- Average G tail length (nt) (SiHa cancer cell [10]): 121 nt
